Measurements published in patent US20200296971A1, “COMPOSITIONS AND METHODS FOR DISPERSING BIOFILMS” (Texas State University, priority 2016, published 2020).
Like-named read-outs stand apart in the source and are kept apart here.

Assays:
[1] = test system: monoculture biofilm of Chromobacterium violaceum; settings: 0.5% boric acid, 2 hours, lightly shaken
Experimental: Test of application: A 0.5% boric acid was injected into a bioreactor containing a monoculture biofilm of Chromobacterium violaceum. The bioreactor was left for 2 hours and lightly shaken.

P. aeruginosa PAO-1 = settings: Luria Broth, R2A broth, Davis minimal media with 0, 0.5, 1.0, 1.5% boric acid, FIG. 3
Experimental: (§1) In most experiments, cultures were grown in 96-well polystyrene microtiter plates as this allowed different growth media and replicates to be tested using an automated plate reader. Growth of suspended (planktonic) bacteria could be measured by the turbidity in the individual microtiter plate chambers (referred to as wells). […] To test for dispersion, the planktonic populations and growth media were removed and replaced with water containing various concentrations of the test compound. Dispersion was observed by an increase in turbidity (due to release of bacteria from biofilms) over 20 minutes.

P. aeruginosa biofilms [2] = settings: 24 h at 37 C
Experimental: as §1
Experiments were conducted in order to examine the ability of P. aeruginosa biofilms grown on different growth media to be dispersed by boric acid. Here, bacteria were grown for 24 h at 37 C on an orbital shaking plate in a microtiter plate. The media was removed and the adherent P. aeruginosa biofilms were exposed to boric acid, placed in a plate reader and turbidity measured following agitation.

P. aeruginosa biofilms [3] = settings: FIG. 4, line B
From the text: To further study the mechanisms of boric acid-induced dispersion a collaboration with Dr. Karin Sauer, Binghamton University was initiated. […] FIG. 4 depicts a bar graph summarizing the results of experiments directed towards determining the ability of boric acid to disperse P. aeruginosa biofilms. The line designated as B is boric acid, D represents a positive control for dispersion and E a negative control.

P. aeruginosa biofilms [4] = test system: P. aeruginosa biofilms
Experimental: P. aeruginosa was grown as planktonic and biofilm populations in different growth media for 48-120 h. Antimicrobial agents were tested in different boric acid concentrations. Boric acid controls lacked the antimicrobial compounds. Initial planktonic growth and dispersion were measured as described previously. After dispersion, the disinfectant and boric acid compounds were removed, replaced with sterile growth medium, and growth monitored by being placed into the plate reader and monitoring an increase of turbidity over an 18-36 h period.
Experiments were conducted in order to determine the ability of boric acid to enhance the antimicrobial action of betadine (poly(vinyl pyrrolidone) iodine). Betadine is commonly used as a disinfectant in clinical environments and the low concentration used (0.02% (w/v)) was chosen based on previous work as it has partial biofilm effectiveness. P. aeruginosa biofilms were grown for 2 and 5 days suspended above a shaking water bath. […] The media used consisted of artificial urine and artificial urine supplemented with 2 mM glucose (reflecting average urine chemistry in normal and diabetic patients). Davis minimal media (MM) and Luria-Bertani broth (LB) were used as representative minimal and rich media. Different biofilm incubation times were used as it is known that biofilm susceptibility to dispersion can increase with biofilm age.
The testing protocol involved the use of a 96-well microtiter plate and a programmable plate reader (Biotek Instruments). The plate reader was programmed for incubation at 37 C and would agitate the plate for 15 seconds prior to taking an absorbance reading of each well. Microtiter wells were partially filled (200 μl) with sterile growth media, then were inoculated with 2 μl of an overnight bacterial culture suspension. For each media and disinfection combination there were a minimum of two replicates as well as uninoculated wells (media without bacteria) to monitor contamination. The microtiter plates were covered with a lid and the sides sealed with Parafilm™ to prevent contamination. Plates were placed on a rack (above the water level) in a water bath, and incubated with shaking (150 rpm) for 2 and 5 days. Testing consisted of removing a plate from the incubator, placing in the plate reader for 30 minutes (allowing for evaporation of humidity) and reading the turbidity (evidence of planktonic growth). Culture media and planktonic cells were removed from the wells and 200-μl dispersant solution containing a mixture of boric acid and 0.02% (w/v) betadine suspended in PBS. Betadine was absent in the control samples. The microtiter plate was placed in the plate reader for 30 minutes (allowing for evaporation of humidity) and turbidity measurements taken (increased turbidity was evidence of biofilm dispersion). To measure biofilm survival, the plates were removed from the plate reader, the dispersant liquid removed, and replaced with sterile LB growth media. The plates were then placed in the plate reader and growth measured (increased turbidity) over a minimum 18 h period.

river water biofilm = settings: 0.5% boric acid, 60 seconds, FIG. 2B
Experimental: To visualize biofilm dispersion a water sample from the sampling site was collected. A microscope slide was placed in 30 ml of river water to cultivate a biofilm. The biofilm was then viewed under a dark field microscope and a 0.5% concentration of boric acid was applied and left for 60 seconds. FIG. 2A depicts a photograph of a microscope slide of river water with biofilms.

[5] = test system: Biofilms from a nearby river; settings: river biofilm on stone, 5 minutes exposure, tested 0%, 0.25%, 0.5%, 1%, 2%, 3%
Experimental: Biofilms are described on the surface of small (15 mm×15 mm) stone.
Biofilms were exposed to various concentrations of Boric Acid. The concentrations used were 0%, 0.25%, 0.5%, 1%, 2%, 3%.
One stone was used per concentration and was measured and weighed for similarity. Each stone was rinsed with sterile H2O to remove any planktonic (not attached to biofilm) bacteria. Each stone was exposed to a known concentration for a time period of 5 minutes and then removed and placed into a separate vial containing 9 ml of sterile water. The vial with after treatment stone in sterile water was then sonicated for 60 seconds to remove any remaining biofilm to be quantified. Sonication served as a mechanical removal for any remaining biofilm.
Media was then placed in 30 C for 48 hrs and growth was quantified through counting colonies.

other organisms = settings: FIG. 3

OB(O)O [boric acid]
removal of visible biofilm from bioreactor [1]: All visible biofilm was removed
ability to grow in the presence of boric acid (P. aeruginosa PAO-1): grew in the presence of boric acid
boric acid concentration at which increased turbidity (evidence of dispersion) was seen (P. aeruginosa biofilms [2]; Davis Minimal Media-grown biofilms): 1.0%
dispersion (increased turbidity) (P. aeruginosa biofilms [2]; LB-grown biofilms): no observable dispersion
boric acid concentration at which increased turbidity (evidence of dispersion) was seen (P. aeruginosa biofilms [2]; R2A-grown biofilms): 0.5%
ability to disperse biofilms in flow cell (P. aeruginosa biofilms [3]): verified the ability of boric acid to disperse P. aeruginosa biofilms
enhancement of betadine activity against older biofilms (P. aeruginosa biofilms [4]; 5-day old PAO-1 biofilms grown in artificial urine, FIGS. 13 and 14, preliminary): does enhance the activity of betadine
regrowth after treatment (P. aeruginosa biofilms [4]; 2 day old biofilms, artificial urine, boric acid without betadine, FIG. 6): growth did occur
effect of boric acid on betadine action (P. aeruginosa biofilms [4]; artificial urine with glucose, FIG. 7): no effect
boric acid-induced toxicity (P. aeruginosa biofilms [4]; at the concentrations listed, preliminary results): low level of boric acid-induced toxicity
betadine activity against biofilms in the presence of boric acid (P. aeruginosa biofilms [4]; two-day biofilms, Davis Minimal Media and Luria-Bertani broth, FIGS. 9 and 11): enhanced
killing by boric acid treatment alone (P. aeruginosa biofilms [4]; two-day biofilms, Davis Minimal Media and Luria-Bertani broth, FIGS. 10 and 12): did not kill P. aeruginosa
biofilm dispersion seen under dark field microscope (river water biofilm): dispersed
concentration producing the highest percent release of biofilm [5]: 0.5 % (w/v)
concentration at which bacterial growth began to be inhibited (other organisms): ≥ 1.5 % (w/v)
